# Source: US20080227829A1, “Neurogenic compounds” (priority 2007, published 2008)
# Entries after “also recorded” stand apart in the source; their conditions may differ.
# Columns and labels:
# [1] = test system: mice; test: Object recognition, visual paired comparison task (VPC); type: in vivo
# Method: Each mouse receiving either apigenin 25 mg/kg or Tween 80:0.9% NaCl (control) solutions was administered an i.p. injection of either drug or control for 7 days, after which they were trained and tested on visual paired comparison task (VPC) behavioral assay. The paradigm consisted of habituation to the experimental room for two hours prior to the experiment on Days 1 and 2. After habituation on Day 1, mice were given a five minute exposure to the testing chamber, followed by a thirty second exploration of two identical objects (familiarization training). Twenty-four hours after the familiarization training, mice were once again re-habituated to the room and testing chamber for two hours and one minute, respectively. After re-habituation mice were placed back into the testing chamber and allowed to explore a familiar and novel object for five minutes. Object exploration times were measured for both familiar and novel objects on Days 1 and 2. Both objects were identical, but the “novel” object was in a different location.
# [2] = test system: dentate gyrus; test: BrdU/DAB quantification of dividing cells in the dentate gyrus after long-term study; type: in vivo, mice; conditions: for number of dividing cells (BrdU+) in the dentate gyrus: 25 mg/kg i.p. 42 days; for number of dividing cells (BrdU+) in the dentate gyrus, overall statement: running and non-running groups
# Method: Injections were administered intraperitoneally (i.p.) for forty-two days total. In addition to test injections, daily i.p. injections of 5-bromo-2-deoxyuridine (BrdU) [10 mg/ml] were administered for the first eight days at a dose of 50 mg/kg. Within each test group, eight mice were randomly selected to receive running exercise. These thirty-two mice (eight mice per injection group) were transferred daily (on Days 1-40 of the study) from their normal static housing to an automated voluntary running wheel cage for two hours a day. Non-running mice remained in their static cages throughout the study. After the long-term study of Example 1 and all behavioral testing was concluded (Day 42), mice were perfused using 4% paraformaldehyde and their brain tissue was extracted. Brain tissue was sectioned and stained for BrdU/DAB quantification of dividing cells. A second immunofluorescence stain was used for phenotyping of the newly dividing cells. Brain sections were also taken and stained with Brdu/NeuN/GFAP. Phenotype analysis was completed to determine the percentage of dividing cells co-labeled with NeuN, a marker used to identify mature neurons. Using the percentage, it was possible to calculate the total number of BrdU/NeuN co-labeled cells in the dentate gyrus.
# [3] = test system: dentate gyrus; test: 10-day oral (food) and i.p. study, BrdU/DAB quantification of dividing cells; type: in vivo, mice; conditions: 10 days; i.p. injection (apigenin 25 mg/kg, epicatechin 20 mg/kg) or food 250 ppm and 500 ppm; vs controls
# Method: A 10-day food study was conducted in which the effects of oral administration of apigenin were compared with apigenin effects upon injection. Food pellets containing epicatechin were tested alongside apigenin. Animals were fed food containing apigenin, epicatechin or control pellets in two doses: 250 ppm and 500 ppm. Aliquots of apigenin and epicatechin were dissolved in [10:90] Tween 80: 0.9% NaCl. Aliquots of Tween 80: 0.9% NaCl were used as controls. Forty mice (age seven weeks) were divided into three test injection groups (n=five per group) and five test food groups (n=five per group) and received: Test injections were administered i.p. for ten days total. Test food was distributed on Day 1 and mice were allowed to eat freely for the duration of the ten days. Daily i.p. injections of BrdU [10 mg/ml] were administered to all animals the first eight days of this study at a dose of 50 mg/kg. At the end of ten days, all mice were perfused using 4% paraformaldehyde and their brain tissue was extracted. Brain tissue was sectioned and stained for BrdU/DAB quantification for dividing cells.
# [4] = test system: Adult neural progenitor cells; test: Immunohistochemistry with lineage-specific markers (Tuj 1, GFAP, RIP); type: cell-based
# Method: Adult neural progenitor cells were plated in N2 media containing FGF2 for twenty-four hours. See Bottenstein et al., Growth of a rat neuroblastoma cell line in serum-free supplemented medium, Proc. Natl. Acad. Sci. USA 76(1) (1979) (describing components of N2 media). The cells were replaced with fresh N2 media (without FGF2) and apigenin was added. In all experiments, 5 mM apigenin dissolved in DMSO was used. As a positive control for neuronal differentiation, N2 media containing retinoic acid (RA) and forskolin (FSK) was used. As a negative control, N2 media and the equivalent amount of DMSO or N2 was used. Either a NeuroD luciferase reporter assay (purchased from Promega, cat. No. e-1980, Dual-Luciferase Reporter 1000 Assay System) was performed two days later or immunohistochemistry was performed four days later. The immunohistochemical analysis of the apigenin-treated and control cells was performed by fixing and staining the cells after four days with lineage-specific markers (Tuj 1 for neurons, GFAP for astrocytes, and RIP for oligodendrocytes). Tuj 1 is a neuron-specific class III beta-tubulin used as a marker for new neurons. GFAP (glial fibrillary acidic protein), an intermediate-filament protein which is expressed almost exclusively in the astrocytes of the central nervous system, is used as a marker for new astrocytes. RIP is a monoclonal antibody used as an early marker of developing oligodendrocytes.
# [5] = 5 mM apigenin, cells first proliferating in FGF2, four days
structure (smiles),measurement,setting,value
O=c1cc(-c2ccc(O)cc2)oc2cc(O)cc(O)c12 [apigenin],difference between injection groups during novel testing,[1]; 25 mg/kg i.p. for 7 days vs Tween 80:0.9% NaCl control,No significant differences
same,preference for the novel object (object exploration time),"[1]; 25 mg/kg i.p. for 7 days, T-test t=0.0008",significant preference for the novel object
same,number of dividing cells (BrdU+) in the dentate gyrus,"[2]; non-runners, vs control non-runners and apigenin 12.5 mg/kg non-runners, p<0.01",significant increase in the number of dividing cells
same,number of dividing cells (BrdU+) in the dentate gyrus,"[2]; runners, vs running control, p<0.05",significantly more dividing cells
same,"number of dividing cells (BrdU+) in the dentate gyrus, overall statement",[2],increases
same,"number of dividing cells (BrdU+) in the dentate gyrus, overall statement",[2]; listed as Apigenin,increased BrdU labeling in both running and non-running groups
same,number of dividing cells (BrdU+) in the dentate gyrus,[3],significant increase in the number of dividing cells; also recorded: increased BrdU labeling
same,astrocyte (GFAP) differentiation,[4]; [5],1-5%
same,oligodendrocyte (RIP) differentiation,[4]; [5],1-5%
same,percentage of Tuj 1-positive neurons,"[4]; 5 mM apigenin, directly plated into N2 media without FGF2, four days",5 to 30%
same,difference in Tuj 1 or Map2ab-positive neurons with or without FGF-2 pre-treatment,[4]; repeated experiments,no significant difference
